US20250382303A1, “NOVEL COMPOUND AS NADPH OXIDASE 2 INHIBITOR AND PHARMACEUTICAL COMPOSITION CONTAINING SAME” (DONGGUK UNIVERSITY INDUSTRY-ACADEMIC COOPERATION FOUNDATION, priority 2022, published 2025)

biological target: T1, NOX2 (Homo sapiens, UniProt P04839); test: NOX2 activity assay: PMA-induced ROS in ATRA-differentiated HL-60 cells (WST-1 or Amplex Red/HRP probe); assay type: cell-based; details: WST-1; comment on Table 1
T1 construct: Used for the NOX2 activity assay was human leukemia 60 cells (HL-60), which are widely, universally used to assess NOX2 activity; endogenous in cells
T1 sequence (P04839 2-570 limits assumed): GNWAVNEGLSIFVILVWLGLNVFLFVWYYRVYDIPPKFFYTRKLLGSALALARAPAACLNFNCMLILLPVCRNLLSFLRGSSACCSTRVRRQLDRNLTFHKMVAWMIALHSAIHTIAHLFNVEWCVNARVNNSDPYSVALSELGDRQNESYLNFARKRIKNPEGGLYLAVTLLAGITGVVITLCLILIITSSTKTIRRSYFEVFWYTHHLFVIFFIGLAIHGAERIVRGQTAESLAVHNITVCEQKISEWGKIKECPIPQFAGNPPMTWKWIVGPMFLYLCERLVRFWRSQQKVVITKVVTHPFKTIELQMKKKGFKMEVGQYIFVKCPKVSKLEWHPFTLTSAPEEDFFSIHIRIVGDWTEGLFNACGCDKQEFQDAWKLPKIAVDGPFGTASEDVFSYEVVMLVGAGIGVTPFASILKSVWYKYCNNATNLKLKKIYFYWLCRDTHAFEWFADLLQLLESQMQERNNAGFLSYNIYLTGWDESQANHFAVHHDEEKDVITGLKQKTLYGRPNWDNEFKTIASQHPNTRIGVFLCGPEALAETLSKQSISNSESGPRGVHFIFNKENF
T1 sequence (P13498 2-195 partner limits assumed): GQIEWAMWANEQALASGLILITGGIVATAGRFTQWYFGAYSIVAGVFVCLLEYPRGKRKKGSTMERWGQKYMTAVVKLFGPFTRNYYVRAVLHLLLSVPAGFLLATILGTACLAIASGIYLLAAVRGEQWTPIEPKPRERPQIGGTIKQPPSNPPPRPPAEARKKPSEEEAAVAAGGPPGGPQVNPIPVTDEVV
Protocol: NOX activity was evaluated by measuring the reactive oxygen species (ROS) produced by NOX. The probes that were used to measure ROS were water soluble tetrazolium-1 (WST-1, superoxide-specific colorimetric probe) and Amplex Red/horseradish peroxidase (AR/HRP, hydrogen peroxide-specific fluorometric probe), and the concentration of the probes used was […]. For WST-1, the change in the absorbance at 450 nm was measured, and, for AR, the change in fluorescence signals was measured at 560 nm and 585 nm, respectively for excitation wavelength (Ex) and emission wavelength (Em). The optical signal was measured using the SpectraMax M3 microplate reader from Molecular Devices at 37° C. for 60 minutes.
Used for the NOX2 activity assay was human leukemia 60 cells (HL-60), which are widely, universally used to assess NOX2 activity. 1×10^5 cells/mL of HL-60 were treated with […] all-trans-retinoic acid (ATRA) for 4 days to induce differentiation. Differentiated HL-60 (diff. HL-60) was centrifuged at 200 g for 5 minutes and washed twice with HBSS. Differentiation was induced to reach 3×10^4 cells/well on a 96-well plate (diff). HL-60 was seeded. The test material was treated to cells and left in a 37° C. incubator for 60 minutes. As a control group, the same concentration of DMSO, which is the vehicle of the test material, was used. 200 ng/mL phorbol 12-myristate 13-acetate (PMA) was used as the NOX2 activator, and the production amount of ROS induced by PMA was measured for 60 minutes. […] diphenyleneiodonium (DPI), which is well known to inhibit NOX, was used as a positive control group to evaluate whether the NOX2 activity tester properly operates.

In the case of CC12CC(NC(=O)N1c1cccc(C(=O)N3CCc4ccccc4C3)c1)c1cc(C(F)(F)F)ccc1O2 (centres unmarked) [Compound 25b, 2-Methyl-3-(3-(1,2,3,4-tetrahydroisoquinoline-2-carbonyl)phenyl)-8-(trifluoromethyl)-5,6-dihydro-2H-2,6-methanobenzo[g][1,3,5]oxadiazocin-4(3H)-one], the “NOX2 inhibitory ability, verbal rating” value is reported as “excellent inhibitory ability”.

same assay, conditions: WST-1 probe; differentiated HL-60, 200 ng/mL PMA; read-out: Inhibitory ability (NOX2)

COc1cc2c(cc1OC)CN(C(=O)c1cccc(N3C(=O)NC4CC3(C)Oc3ccccc34)c1)CC2 (racemic) [Compound 8b, 3-(3-(6,7-Dimethoxy-1,2,3,4-tetrahydroisoquinoline-2-carbonyl)phenyl)-2-methyl-5,6-dihydro-2H-2,6-methanobenzo[g][1,3,5]oxadiazocin-4(3H)-one] and C[C@@]12C[C@@H](NC(=O)N1c1cccc(C(=O)N3CCc4ccccc4C3)c1)c1ccccc1O2 [Compound 10a, (2R,6R)-2-Methyl-3-(3-(1,2,3,4-tetrahydroisoquinoline-2-carbonyl)phenyl)-5,6-dihydro-2H-2,6-methanobenzo[g][1,3,5]oxadiazocin-4(3H)-one] cannot be ordered by IC50: over 10 µM for the first, over 10 µM for the second.

First: CC12CC(NC(=O)N1c1cccc(C(=O)NCc3ccc(C(F)(F)F)cc3)c1)c1ccccc1O2 (racemic) [Compound 8c, 3-(2-Methyl-4-oxo-5,6-dihydro-2H-2,6-methanobenzo[g][1,3,5]oxadiazocin-3(4H)-yl)-N-(4-(trifluoromethyl)benzyl)benzamide]
Second: CC12CC(NC(=O)N1c1cccc(C(=O)NCCc3ccc(C(F)(F)F)cc3)c1)c1ccccc1O2 (racemic) [Compound 8d, 3-(2-Methyl-4-oxo-5,6-dihydro-2H-2,6-methanobenzo[g][1,3,5]oxadiazocin-3(4H)-yl)-N-(4-(trifluoromethyl)phenethyl)benzamide]
The IC50 of the first is higher: over 10 µM for the first, 1 to 10 µM for the second.

First: CC12CC(NC(=O)N1c1cccc(C(=O)NC3Cc4ccccc4C3)c1)c1ccccc1O2 (racemic) [Compound 8e, N-(2,3-Dihydro-1H-inden-2-yl)-3-(2-methyl-4-oxo-5,6-dihydro-2H-2,6-methanobenzo[g][1,3,5]oxadiazocin-3(4H)-yl)benzamide]
Second: C[C@]12C[C@H](NC(=O)N1c1cccc(C(=O)N3CCc4ccccc4C3)c1)c1ccccc1O2 [Compound 10c, (2S,6S)-2-Methyl-3-(3-(1,2,3,4-tetrahydroisoquinoline-2-carbonyl)phenyl)-5,6-dihydro-2H-2,6-methanobenzo[g][1,3,5]oxadiazocin-4(3H)-one]
The IC50 of the first is higher: over 10 µM for the first, 1 to 10 µM for the second.

CC12CC(NC(=O)N1c1cccc(C(=O)NCc3cccnc3)c1)c1ccccc1O2 (racemic) [Compound 8f, 3-(2-Methyl-4-oxo-5,6-dihydro-2H-2,6-methanobenzo[g][1,3,5]oxadiazocin-3(4H)-yl)-N-(pyridin-3-ylmethyl)benzamide] and CC12CC(NC(=O)N1c1cccc(C(=O)NCc3ccco3)c1)c1ccccc1O2 (racemic) [Compound 8g, N-(Furan-2-ylmethyl)-3-(2-methyl-4-oxo-5,6-dihydro-2H-2,6-methanobenzo[g][1,3,5]oxadiazocin-3(4H)-yl)benzamide] cannot be ordered by IC50: over 10 µM for the first, over 10 µM for the second.

CC12CC(NC(=O)N1c1cccc(C(=O)NC3CC3)c1)c1ccccc1O2 (racemic) [Compound 8h, N-Cyclopropyl-3-(2-methyl-4-oxo-5,6-dihydro-2H-2,6-methanobenzo[g][1,3,5]oxadiazocin-3(4H)-yl)benzamide] and CC12CC(NC(=O)N1c1cccc(C(=O)O)c1)c1ccccc1O2 (centres unmarked) [Compound 7, 3-(2-Methyl-4-oxo-5,6-dihydro-2H-2,6-methanobenzo[g][1,3,5]oxadiazocin-3(4H)-yl)benzoic acid] cannot be ordered by IC50: over 10 µM for the first, over 10 µM for the second.

CN(Cc1ccccc1)C(=O)c1cccc(N2C(=O)NC3CC2(C)Oc2ccccc23)c1 (racemic) [Compound 8i, N-Benzyl-N-methyl-3-(2-methyl-4-oxo-5,6-dihydro-2H-2,6-methanobenzo[g][1,3,5]oxadiazocin-3(4H)-yl)benzamide] and C[C@@]12C[C@@H](NC(=O)N1c1cccc(C(=O)NCc3ccc(Br)cc3)c1)c1ccccc1O2 [Compound 10b, N-(4-Bromobenzyl)-3-((2R,6R)-2-methyl-4-oxo-5,6-dihydro-2H-2,6-methanobenzo[g][1,3,5]oxadiazocin-3(4H)-yl)benzamide] cannot be ordered by IC50: over 10 µM for the first, over 10 µM for the second.

CN1C(=O)N(c2cccc(C(=O)N3CCc4ccccc4C3)c2)C2(C)CC1c1ccccc1O2 (centres unmarked) [Compound 9, 2,5-Dimethyl-3-(3-(1,2,3,4-tetrahydroisoquinoline-2-carbonyl)phenyl)-5,6-dihydro-2H-2,6-methanobenzo[g][1,3,5]oxadiazocin-4(3H)-one] and CC12CC(NC(=O)N1c1cccc(C(=O)N3CCc4ccccc4C3)c1)c1cc(Br)ccc1O2 (centres unmarked) [Compound 25a, 8-Bromo-2-methyl-3-(3-(1,2,3,4-tetrahydroisoquinoline-2-carbonyl)phenyl)-5,6-dihydro-2H-2,6-methanobenzo[g][1,3,5]oxadiazocin-4(3H)-one] cannot be ordered by IC50: over 10 µM for the first, over 10 µM for the second.

C[C@]12C[C@H](NC(=O)N1c1cccc(C(=O)NCc3cc(Br)cc(Br)c3)c1)c1ccccc1O2 [Compound 10d, N-(3,5-Dibromobenzyl)-3-((2S,6S)-2-methyl-4-oxo-5,6-dihydro-2H-2,6-methanobenzo[g][1,3,5]oxadiazocin-3(4H)-yl)benzamide] and CC12CC(NC(=O)N1c1cccc(-c3ccco3)c1)c1ccccc1O2 (centres unmarked) [Compound 15b, 3-(3-(Furan-2-yl)phenyl)-2-methyl-5,6-dihydro-2H-2,6-methanobenzo[g][1,3,5]oxadiazocin-4(3H)-one] cannot be ordered by IC50: over 10 µM for the first, over 10 µM for the second.

CC12CC(NC(=O)N1c1cccc(-c3cccc(C#N)c3)c1)c1ccccc1O2 (centres unmarked) [Compound 15a, 3′-(2-Methyl-4-oxo-5,6-dihydro-2H-2,6-methanobenzo[g][1,3,5]oxadiazocin-3(4H)-yl)-[1,1′-biphenyl]-3-carbonitrile] and CC12CC(NC(=O)N1c1cccc(CNc3cccc(C(F)(F)F)c3)c1)c1ccccc1O2 (centres unmarked) [Compound 19, 2-methyl-3-(3-(((3-(trifluoromethyl)phenyl)amino)methyl)phenyl)-5,6-dihydro-2H-2,6-methanobenzo[g][1,3,5]oxadiazocin-4(3H)-one] cannot be ordered by IC50: over 10 µM for the first, over 10 µM for the second.

Compared with CN1C(=O)N(c2cccc(-c3ccco3)c2)C2(C)CC1c1ccccc1O2 (centres unmarked) [Compound 16, 3-(3-(Furan-2-yl)phenyl)-2,5-dimethyl-5,6-dihydro-2H-2,6-methanobenzo[g][1,3,5]oxadiazocin-4(3H)-one], CC12CC(NC(=O)N1c1cccc(C(=O)N3CCc4ccccc4C3)c1)c1cc(Cl)ccc1O2 (centres unmarked) [Compound 25c, 8-Chloro-2-methyl-3-(3-(1,2,3,4-tetrahydroisoquinoline-2-carbonyl)phenyl)-5,6-dihydro-2H-2,6-methanobenzo[g][1,3,5]oxadiazocin-4(3H)-one] is lower in IC50: over 10 µM for the first, 1 to 10 µM for the second.

Compared with CC12CC(NC(=O)N1c1cccc(C(=O)N3CCc4ccccc4C3)c1)c1cc(C(F)(F)F)ccc1O2 (centres unmarked) [Compound 25b, 2-Methyl-3-(3-(1,2,3,4-tetrahydroisoquinoline-2-carbonyl)phenyl)-8-(trifluoromethyl)-5,6-dihydro-2H-2,6-methanobenzo[g][1,3,5]oxadiazocin-4(3H)-one], CC12CC(NC(=O)N1c1cccc(C(=O)N3CCc4ccccc4C3)c1)c1cc(F)ccc1O2 (centres unmarked) [Compound 25d, 8-Fluoro-2-methyl-3-(3-(1,2,3,4-tetrahydroisoquinoline-2-carbonyl)phenyl)-5,6-dihydro-2H-2,6-methanobenzo[g][1,3,5]oxadiazocin-4(3H)-one] is lower in IC50: over 10 µM for the first, 1 to 10 µM for the second. The second is the more potent here.
